From US10258041B2, “Substituted pyrazolylpyrazole derivative and use of same as herbicide” (KYOYU AGRI CO., LTD., priority 2015, dated 2019)

Key:
Type in all cases: in vivo
Oryza sativa = test: Paddy herbicidal activity test, chemical damage to transplanted rice; details: rice transplanted in 2.0 leaf stage, 30 days
Protocol: (§1) Rice paddy soil was filled into a 1/10000 are pot followed by the addition of suitable amounts of water and chemical fertilizer, kneading, seeding with Echinochloa crus-galli, Monochoria vaginalis and Scirpus juncoides and maintaining in an irrigated state at a water depth of 3 cm. Wettable powders of Target Compound (I) shown in Table 1 prepared in compliance with the preparation examples were diluted with a suitable amount of water, rice plants in the 2.0 leaf stage were transplanted during 3.5 leaf stage of Echinochloa crus-galli, and treated by dropping in chemical in the prescribed amount per 10 are using a pipette. After treating for 30 days in a glass greenhouse at an average atmospheric temperature of […], the herbicidal efficacy thereof was investigated. Evaluation of herbicidal efficacy was carried out by comparing growth inhibition rate (%) with an untreated group, while evaluation of chemical damage was carried out by comparing growth inhibition rate (%) with the state of a complete eradication group, and were evaluated at 11 levels indicated below. • 0 (exponent): 0% to less than 10% (growth inhibition rate) • 1: 10% to less than 20% • 2: 20% to less than 30% • 3: 30% to less than 40% • 4: 40% to less than 50% • 5: 50% to less than 60% • 6: 60% to less than 70% • 7: 70% to less than 80% • 8: 80% to less than 90% • 9: 90% to less than 100% • 10: 100%

Monochoria vaginalis = test: Paddy herbicidal activity test; details: irrigated pot, treated at 3.5 leaf stage of Echinochloa crus-galli, 30 days
Protocol: as §1

Scirpus juncoides = test: Paddy herbicidal activity test; details: irrigated pot, treated at 3.5 leaf stage of Echinochloa crus-galli, 30 days
Protocol: as §1

Echinochloa crus-galli = test: Paddy herbicidal activity test; details: irrigated pot, treated at 3.5 leaf stage of Echinochloa crus-galli, 30 days
Protocol: as §1

Digitaria ciliaris [1] = test: Weed foliar treatment test (Test 4, higher leaf stage); details: 10 g a.i./10a; foliar spray at 4.0 to 5.0 leaf stage of Digitaria ciliaris (plant height 10 cm to 15 cm); 20 days, 25° C.
Protocol: (§2) Evaluation of herbicidal efficacy was carried out by comparing growth inhibition rate (%) with an untreated group, while evaluation of chemical damage was carried out by comparing growth inhibition rate (%) with the state of a complete eradication group, and were evaluated at 11 levels indicated below. • 0 (exponent): 0% to less than 10% (growth inhibition rate) • 1: 10% to less than 20% • 2: 20% to less than 30% • 3: 30% to less than 40% • 4: 40% to less than 50% • 5: 50% to less than 60% • 6: 60% to less than 70% • 7: 70% to less than 80% • 8: 80% to less than 90% • 9: 90% to less than 100% • 10: 100% Field soil was filled into a 1/4500 are pot followed by seeding with Digitaria ciliaris and Galinsoga parviflora, covering with soil and cultivating in a glass greenhouse at an average atmospheric temperature of 25° C. Wettable powders of Target Compound (I) shown, in Table 1 prepared in compliance with the preparation examples were diluted with water to the prescribed amount of chemical and uniformly sprayed onto the weeds using 100 liters of sprayed water per 10 are when Digitaria ciliaris had grown to the 4.0 to 5.0 leaf stage (plant height: 10 cm to 15 cm). After treating for 20 days in a glass greenhouse at an average atmospheric temperature of 25° C., the herbicidal efficacy thereof was investigated. Evaluation of herbicidal efficacy was carried out in the same manner as the above-mentioned Test Example 1.

Galinsoga parviflora = test: as above; details: 10 g a.i./10a; foliar spray at 4.0 to 5.0 leaf stage of Digitaria ciliaris; 20 days, 25° C.
Protocol: as §2

Amaranthus retroflexus [2] = test: Farming soil treatment test; details: soil surface spray prior to weed growth, 30 days, 30° C.
Protocol: (§3) Evaluation of herbicidal efficacy was carried out by comparing growth inhibition rate (%) with an untreated group, while evaluation of chemical damage was carried out by comparing growth inhibition rate (%) with the state of a complete eradication group, and were evaluated at 11 levels indicated below. • 0 (exponent): 0% to less than 10% (growth inhibition rate) • 1: 10% to less than 20% • 2: 20% to less than 30% • 3: 30% to less than 40% • 4: 40% to less than 50% • 5: 50% to less than 60% • 6: 60% to less than 70% • 7: 70% to less than 80% • 8: 80% to less than 90% • 9: 90% to less than 100% • 10: 100% Field soil was filled into a 1/6000 are pot followed by seeding with Digitaria ciliaris, Chenopodium album and Amraranthus retroflexus and covering with soil. Wettable powders of compounds of formula (I) shown in Table 1 prepared in compliance with the preparation examples were diluted with water to the prescribed amount of chemical and uniformly sprayed onto each soil surface layer using 100 liters of sprayed water per 10 are prior to weed growth following seeding. After treating for 30 days in a glass greenhouse at an average atmospheric temperature of 30° C., the herbicidal efficacy thereof was investigated. Evaluation of herbicidal efficacy was carried out in the same manner as the above-mentioned Test Example 1,

Chenopodium album [3] = test: Farming soil treatment test; details: soil surface spray prior to weed growth, 30 days, 30° C.
Protocol: as §3

Digitaria ciliaris [4] = test: Farming soil treatment test; details: soil surface spray prior to weed growth, 30 days, 30° C.
Protocol: as §3

Amaranthus retroflexus [5] = test: Weed foliar treatment test (Test 3); details: foliar spray at 1.0 to 2.0 leaf stage of Digitaria ciliaris, 3 weeks, 25° C.
Protocol: (§4) Evaluation of herbicidal efficacy was carried out by comparing growth inhibition rate (%) with an untreated group, while evaluation of chemical damage was carried out by comparing growth inhibition rate (%) with the state of a complete eradication group, and were evaluated at 11 levels indicated below. • 0 (exponent): 0% to less than 10% (growth inhibition rate) • 1: 10% to less than 20% • 2: 20% to less than 30% • 3: 30% to less than 40% • 4: 40% to less than 50% • 5: 50% to less than 60% • 6: 60% to less than 70% • 7: 70% to less than 80% • 8: 80% to less than 90% • 9: 90% to less than 100% • 10: 100% Soil was filled into a 1/6000 are pot followed by seeding with Digitaria ciliaris, Chenopodium album and Amaranthus retroflexus, covering with soil, and cultivating in a glass greenhouse at an average atmospheric temperature of 25° C. Wettable powders of Target Compound (I) shown in Table 1 prepared in compliance with the preparation examples were diluted with water to the prescribed amount of chemical and uniformly sprayed onto the weeds using 150 liters of sprayed water per 10 are when Digitaria ciliaris had grown to the 1.0 to 2.0 leaf stage. After treating for 3 weeks in a glass greenhouse at an average atmospheric temperature of 25° C., the herbicidal efficacy thereof was investigated. Evaluation of herbicidal efficacy was carried out in the same manner as the above-mentioned Test Example 1.

Chenopodium album [6] = test: Weed foliar treatment test (Test 3); details: foliar spray at 1.0 to 2.0 leaf stage of Digitaria ciliaris, 3 weeks, 25° C.
Protocol: as §4

Digitaria ciliaris [7] = test: Weed foliar treatment test (Test 3); details: foliar spray at 1.0 to 2.0 leaf stage of Digitaria ciliaris, 3 weeks, 25° C.
Protocol: as §4

Compound	chemical damage (growth inhibition rate level), Oryza sativa (Oryza sativa; 1 g a.i./10a)	chemical damage (growth inhibition rate level), Oryza sativa (Oryza sativa; 5 g a.i./10a)	herbicidal efficacy (growth inhibition rate level), Monochoria vaginalis (Monochoria vaginalis; 1 g a.i./10a)	herbicidal efficacy (growth inhibition rate level), Monochoria vaginalis (Monochoria vaginalis; 5 g a.i./10a)	herbicidal efficacy (growth inhibition rate level), Scirpus juncoides (Scirpus juncoides; 1 g a.i./10a)	herbicidal efficacy (growth inhibition rate level), Scirpus juncoides (Scirpus juncoides; 5 g a.i./10a)	herbicidal efficacy (growth inhibition rate level), Echinochloa crus-galli (Echinochloa crus-galli; 1 g a.i./10a)	herbicidal efficacy (growth inhibition rate level), Echinochloa crus-galli (Echinochloa crus-galli; 5 g a.i./10a)	herbicidal efficacy (growth inhibition rate level), Digitaria ciliaris (Digitaria ciliaris [1])	herbicidal efficacy (growth inhibition rate level), Galinsoga parviflora (Galinsoga parviflora)	herbicidal efficacy (growth inhibition rate level), Amaranthus retroflexus (Amaranthus retroflexus [2]; 5 g a.i./10a)	herbicidal efficacy (growth inhibition rate level), Amaranthus retroflexus (Amaranthus retroflexus [2]; 10 g a.i./10a)	herbicidal efficacy (growth inhibition rate level), Chenopodium album (Chenopodium album [3]; 5 g a.i./10a)	herbicidal efficacy (growth inhibition rate level), Chenopodium album (Chenopodium album [3]; 10 g a.i./10a)	herbicidal efficacy (growth inhibition rate level), Digitaria ciliaris (Digitaria ciliaris [4]; 5 g a.i./10a)	herbicidal efficacy (growth inhibition rate level), Digitaria ciliaris (Digitaria ciliaris [4]; 10 g a.i./10a)	herbicidal efficacy (growth inhibition rate level), Amaranthus retroflexus (Amaranthus retroflexus [5]; 5 g a.i./10a)	herbicidal efficacy (growth inhibition rate level), Amaranthus retroflexus (Amaranthus retroflexus [5]; 10 g a.i./10a)	herbicidal efficacy (growth inhibition rate level), Chenopodium album (Chenopodium album [6]; 5 g a.i./10a)	herbicidal efficacy (growth inhibition rate level), Chenopodium album (Chenopodium album [6]; 10 g a.i./10a)	other results
CC(=O)Nc1c([N+](=O)[O-])cnn1-c1nn2c(c1Cl)CCCC2 [Control Agent 2.17]	0 (0 (exponent): 0% to less than 10% (growth inhibition rate))	1 (1: 10% to less than 20%)	1 (1: 10% to less than 20%)	2 (2: 20% to less than 30%)	0 (0 (exponent): 0% to less than 10% (growth inhibition rate))	1 (1: 10% to less than 20%)	1 (1: 10% to less than 20%)	1 (1: 10% to less than 20%)	0 (0 (exponent): 0% to less than 10% (growth inhibition rate))	5 (5: 50% to less than 60%)	4 (4: 40% to less than 50%)	5 (5: 50% to less than 60%)	0 (0 (exponent): 0% to less than 10% (growth inhibition rate))	1 (1: 10% to less than 20%)	0 (0 (exponent): 0% to less than 10% (growth inhibition rate))	1 (1: 10% to less than 20%)	6 (6: 60% to less than 70%)	6 (6: 60% to less than 70%)	0 (0 (exponent): 0% to less than 10% (growth inhibition rate))	1 (1: 10% to less than 20%)	herbicidal efficacy (growth inhibition rate level), Digitaria ciliaris (Digitaria ciliaris [7]; 5 g a.i./10a): 2 (2: 20% to less than 30%); herbicidal efficacy (growth inhibition rate level), Digitaria ciliaris (Digitaria ciliaris [7]; 10 g a.i./10a): 2 (2: 20% to less than 30%)
CCC(=O)Nc1c(C#N)cnn1-c1nn2c(c1Cl)CCCC2 [Control Agent 4.187]	1 (1: 10% to less than 20%)	2 (2: 20% to less than 30%)	3 (3: 30% to less than 40%)	3 (3: 30% to less than 40%)	0 (0 (exponent): 0% to less than 10% (growth inhibition rate))	1 (1: 10% to less than 20%)	2 (2: 20% to less than 30%)	3 (3: 30% to less than 40%)	2 (2: 20% to less than 30%)	3 (3: 30% to less than 40%)	4 (4: 40% to less than 50%)	5 (5: 50% to less than 60%)	2 (2: 20% to less than 30%)	3 (3: 30% to less than 40%)	2 (2: 20% to less than 30%)	3 (3: 30% to less than 40%)	5 (5: 50% to less than 60%)	6 (6: 60% to less than 70%)	2 (2: 20% to less than 30%)	3 (3: 30% to less than 40%)	herbicidal efficacy (growth inhibition rate level), Digitaria ciliaris (Digitaria ciliaris [7]; 5 g a.i./10a): 2 (2: 20% to less than 30%); herbicidal efficacy (growth inhibition rate level), Digitaria ciliaris (Digitaria ciliaris [7]; 10 g a.i./10a): 3 (3: 30% to less than 40%)
